Experimental data published in patent US8148391B2 (Cephalon, Inc., priority 2006, dated 2012).
Like-named read-outs stand apart in the source and are kept apart here.

Legend:
[1] = target: T1, baculovirus-expressed ALK (Homo sapiens, UniProt Q9UM73); experiment: ALK Kinase Assay (ELISA-type, time-resolved fluorescence); format: biochemical
T1 construct: host or cells: baculovirus expression system
Method in brief: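 Plates coated with phospholipase C-γ substrate (10 μg/mL in TBS); reaction started with 30 ng/ml ALK and run 15 min at 37° C. Phosphorylated substrate detected with Eu-N1-labeled PT66 antibody. IC50 from sigmoidal variable-slope fit of percent inhibition vs log concentration.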

[2] = target: T2, c-Met (cytoplasmic domain) (Homo sapiens, UniProt P08581); experiment: c-Met Kinase Assay (same methods as for ALK, with modifications); format: biochemical
T2 construct: 10 ng/mL c-Met (cytoplasmic domain, Invitrogen Corporation #PV3143); purchased Invitrogen Corporation PV3143
T2 sequence (P08581 956-1390 limits assumed): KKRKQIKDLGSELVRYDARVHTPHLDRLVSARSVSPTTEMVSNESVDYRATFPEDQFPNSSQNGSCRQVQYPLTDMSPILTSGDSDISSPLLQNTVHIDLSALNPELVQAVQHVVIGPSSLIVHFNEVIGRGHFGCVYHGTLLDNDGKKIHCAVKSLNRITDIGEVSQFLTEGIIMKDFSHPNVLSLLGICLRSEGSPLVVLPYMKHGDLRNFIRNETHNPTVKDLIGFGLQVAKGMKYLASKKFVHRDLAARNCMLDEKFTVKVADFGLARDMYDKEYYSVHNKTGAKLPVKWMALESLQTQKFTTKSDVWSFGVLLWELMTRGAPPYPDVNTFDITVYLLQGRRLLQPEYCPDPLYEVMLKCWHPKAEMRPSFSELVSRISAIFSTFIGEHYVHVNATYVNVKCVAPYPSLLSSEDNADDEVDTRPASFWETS
Method in brief: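 Plates were coated with phospholipase C-γ substrate (10 μg/mL) in TBS, and the reaction was started with 10 ng/mL c-Met cytoplasmic domain and run 15 min at 37 °C. Phosphoproduct was detected with Eu-N1-labelled PT66 antibody. IC50 came from a variable-slope sigmoidal fit of percent inhibition vs log concentration.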

[3] = 1 μM ATP (Km level), 30 ng/ml ALK, 37° C., 15 minutes, read-out: ALK Activity (ALK kinase inhibition, IC50 class)
[4] = 1 μM ATP (Km level), 10 ng/mL c-Met, read-out: cMet Activity (c-Met kinase inhibition, IC50 class)
[5] = ALK kinase inhibition, 1 μM ATP, read-out: ALK Activity
[6] = c-Met kinase inhibition, 1 μM ATP, read-out: cMet Activity
[7] = 1 μM ATP (Km level), read-out: ALK Activity (ALK Kinase Inhibition, IC50)
[8] = 1 μM ATP (Km level), read-out: cMet Activity (c-Met Kinase Inhibition, IC50)
[9] = ALK kinase inhibition, 1 μM ATP (Km level), read-out: ALK Activity
[10] = c-Met kinase inhibition, 1 μM ATP (Km level), read-out: cMet Activity

T1 sequence (Q9UM73 19-1620): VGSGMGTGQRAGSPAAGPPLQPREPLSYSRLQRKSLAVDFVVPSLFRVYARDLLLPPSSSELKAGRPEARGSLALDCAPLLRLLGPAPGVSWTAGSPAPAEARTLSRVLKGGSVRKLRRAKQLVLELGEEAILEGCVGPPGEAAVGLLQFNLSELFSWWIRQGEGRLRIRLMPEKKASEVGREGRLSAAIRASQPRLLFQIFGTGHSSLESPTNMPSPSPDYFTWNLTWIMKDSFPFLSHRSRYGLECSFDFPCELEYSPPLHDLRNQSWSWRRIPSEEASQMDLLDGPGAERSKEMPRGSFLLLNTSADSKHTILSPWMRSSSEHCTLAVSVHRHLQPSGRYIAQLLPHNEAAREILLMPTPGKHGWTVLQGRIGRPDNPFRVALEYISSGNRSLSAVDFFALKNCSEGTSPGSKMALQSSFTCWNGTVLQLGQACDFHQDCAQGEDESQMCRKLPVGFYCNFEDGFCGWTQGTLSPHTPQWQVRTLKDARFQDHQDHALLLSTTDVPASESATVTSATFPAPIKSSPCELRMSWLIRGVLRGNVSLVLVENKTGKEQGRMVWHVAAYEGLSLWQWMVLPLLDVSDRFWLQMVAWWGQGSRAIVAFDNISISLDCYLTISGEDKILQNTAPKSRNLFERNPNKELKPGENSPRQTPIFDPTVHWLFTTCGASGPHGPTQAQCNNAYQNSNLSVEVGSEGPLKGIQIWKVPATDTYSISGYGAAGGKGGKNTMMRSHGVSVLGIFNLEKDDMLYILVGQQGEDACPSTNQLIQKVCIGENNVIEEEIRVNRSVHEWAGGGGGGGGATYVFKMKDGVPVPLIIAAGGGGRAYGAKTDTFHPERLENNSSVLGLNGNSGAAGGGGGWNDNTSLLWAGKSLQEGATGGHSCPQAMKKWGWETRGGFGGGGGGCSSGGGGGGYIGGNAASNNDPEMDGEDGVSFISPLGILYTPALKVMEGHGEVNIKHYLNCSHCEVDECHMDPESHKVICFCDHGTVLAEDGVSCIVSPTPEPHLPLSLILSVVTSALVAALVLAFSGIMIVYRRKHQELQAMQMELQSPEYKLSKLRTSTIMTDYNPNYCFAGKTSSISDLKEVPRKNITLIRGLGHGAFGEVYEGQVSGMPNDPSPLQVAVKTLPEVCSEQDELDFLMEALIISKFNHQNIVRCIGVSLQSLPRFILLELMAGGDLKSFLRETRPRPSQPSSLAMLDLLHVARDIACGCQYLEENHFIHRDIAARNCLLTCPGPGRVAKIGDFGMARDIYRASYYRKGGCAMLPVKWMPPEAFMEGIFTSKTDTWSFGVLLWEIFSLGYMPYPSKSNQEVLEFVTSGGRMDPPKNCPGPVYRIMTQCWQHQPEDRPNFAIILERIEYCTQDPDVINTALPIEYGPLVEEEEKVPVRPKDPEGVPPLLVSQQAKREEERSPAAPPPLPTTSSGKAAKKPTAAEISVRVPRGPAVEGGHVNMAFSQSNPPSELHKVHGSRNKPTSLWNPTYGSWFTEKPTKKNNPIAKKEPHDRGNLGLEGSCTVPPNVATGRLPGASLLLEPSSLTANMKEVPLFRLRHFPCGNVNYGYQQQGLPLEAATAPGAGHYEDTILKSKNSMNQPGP

IC50 [1, 5]	IC50 [2, 6]	IC50 [1, 7]	IC50 [2, 8]	also measured	SMILES
–	–	–	–	IC50 [1, 3]: < 0.1 µM; IC50 [2, 4]: > 10 µM	CNC(=O)CN1CCc2cc(Nc3ncc(Cl)c(NC4C5C=CC(C5)C4C(N)=O)n3)c(OC)cc2CC1 (stereo not drawn) [Example 1117, (2-exo,3-exo)-3-[5-Chloro-2-(8-methoxy-3-methylcarbamoylmethyl-2,3,4,5-tetrahydro-1H-benzo[d]azepin-7-ylamino)-pyrimidin-4-ylamino]-bicyclo[2.2.1]hept-5-ene-2-carboxylic acid amide]
< 0.1 µM	< 0.1 µM	–	–	–	CCN1CCN(CC(=O)OCCOC)C(=O)c2ccc(Nc3ncc(Cl)c(Nc4ccccc4C(=O)NC)n3)cc21 [Example 1459, {8-[5-Chloro-4-(2-methylcarbamoyl-phenylamino)-pyrimidin-2-ylamino]-1-ethyl-5-oxo-1,2,3,5-tetrahydro-benzo[e][1,4]diazepin-4-yl}-acetic acid 2-methoxy-ethyl ester]
< 0.1 µM	> 10 µM	–	–	–	COc1cc2c(cc1Nc1ncc(Cl)c(N[C@H]3[C@@H](C(N)=O)[C@@H]4C=C[C@H]3C4)n1)CCN(CC(=O)N1CCN(C)CC1)CC2 [Example 1539, (1S,2S,3R,4R)-3-(5-Chloro-2-{8-methoxy-3-[2-(4-methyl-piperazin-1-yl)-2-oxo-ethyl]-2,3,4,5-tetrahydro-1H-3-benzazepin-7-ylamino}-pyrimidin-4-ylamino)-bicyclo[2.2.1]hept-5-ene-2-carboxylic acid amide]
< 0.1 µM	1 to 10 µM	–	–	–	COc1cc2c(cc1Nc1ncc(Cl)c(Nc3ccccc3S(=O)(=O)N3CCCC3)n1)NC(=O)CN(CC1CC1)C2 [Example 1668, 8-{5-Chloro-4-[2-(pyrrolidine-1-sulfonyl)-phenylamino]-pyrimidin-2-ylamino}-4-cyclopropylmethyl-7-methoxy-1,3,4,5-tetrahydro-benzo[e][1,4]diazepin-2-one]
–	–	< 0.1 µM	> 10 µM	–	COCC(COC)N1CCc2cc(Nc3ncc(Cl)c(Nc4ccccc4S(=O)(=O)N(C)C)n3)c(OC)cc2CC1 [Example 818, 2-{5-Chloro-2-[8-methoxy-3-(2-methoxy-1-methoxymethyl-ethyl)-2,3,4,5-tetrahydro-1H-benzo[d]azepin-7-ylamino]-pyrimidin-4-ylamino}-N,N-dimethyl-benzenesulfonamide]
–	–	< 0.1 µM	0.1 to 1 µM	–	COc1c(Nc2ncc(Cl)c(Nc3ccccc3S(=O)(=O)N3CCC(O)C3)n2)ccc2c1CCC(NCCO)CC2 (stereo not drawn) [Example 703, 1-(2-{5-Chloro-2-[7-(2-hydroxy-ethylamino)-1-methoxy-6,7,8,9-tetrahydro-5H-benzocyclohepten-2-ylamino]-pyrimidin-4-ylamino}-benzenesulfonyl)-pyrrolidin-3-ol]
–	–	< 0.1 µM	1 to 10 µM	–	CCN1CCN(CC)c2cc(Nc3ncc(Cl)c(Nc4ccc(OC)cc4-n4cccn4)n3)ccc2C1 [Example 732, 5-Chloro-N(2)-(1,4-diethyl-2,3,4,5-tetrahydro-1H-benzo[e][1,4]diazepin-8-yl)-N(4)-(4-methoxy-2-pyrazol-1-yl-phenyl)-pyrimidine-2,4-diamine]
–	–	0.1 to 1 µM	> 10 µM	–	COc1cc2c(cc1Nc1ncc(Cl)c(NC3(CC(N)=O)CCCCC3)n1)CCN(CC(=O)N(C)C)CC2 [Example 847, 2-{1-[5-Chloro-2-(3-dimethylcarbamoylmethyl-8-methoxy-2,3,4,5-tetrahydro-1H-benzo[d]azepin-7-ylamino)-pyrimidin-4-ylamino]-cyclohexyl}-acetamide]
–	–	–	–	IC50 [1, 9]: < 0.1 µM; IC50 [2, 10]: < 0.1 µM	CNC(=O)c1ccccc1Nc1nc(Nc2ccc3c(c2)N(C)CCN(S(C)(=O)=O)C3)ncc1Cl [Example 483, 2-[5-Chloro-2-(4-methanesulfonyl-1-methyl-2,3,4,5-tetrahydro-1H-benzo[e][1,4]diazepin-8-ylamino)-pyrimidin-4-ylamino]-N-methyl-benzamide]
–	–	–	–	IC50 [1, 9]: < 0.1 µM; IC50 [2, 10]: 0.1 to 1 µM	CCN1CCc2ccc(Nc3ncc(Cl)c(Nc4ccccc4-c4nccn4C)n3)cc2CC1 [Example 216, 5-Chloro-N*2*-(3-ethyl-2,3,4,5-tetrahydro-1H-benzo[d]azepin-7-yl)-N*4*-[2-(1-methyl-1H-imidazol-2-yl)-phenyl]-pyrimidine-2,4-diamine]
–	–	–	–	IC50 [1, 3]: < 0.1 µM; IC50 [2, 4]: < 0.1 µM	CNC(=O)c1cc(F)cc(F)c1Nc1nc(Nc2ccc3c(c2)NC(=O)CCC3)ncc1Cl [Example 1278, 2-[5-Chloro-2-(2-oxo-2,3,4,5-tetrahydro-1H-1-benzazepin-8-ylamino)-pyrimidin-4-ylamino]-3,5-difluoro-N-methyl-benzamide]
< 0.1 µM	0.1 to 1 µM	–	–	–	C#CCNC(=O)c1cccc(F)c1Nc1nc(Nc2ccc3c(c2)N(C(C)C)CCCO3)ncc1Cl [Example 1733, 2-[5-Chloro-2-(9-isopropyl-6,7,8,9-tetrahydro-5-oxa-9-aza-benzocyclohepten-2-ylamino)-pyrimidin-4-ylamino]-3-fluoro-N-prop-2-ynyl-benzamide]
1 to 10 µM	1 to 10 µM	–	–	–	C#CCNC(=O)c1cccc(F)c1Nc1nc(Nc2ccc3c(c2)N(C(C)C)CCCC3(C)C)ncc1Cl [Example 1627, 2-[5-Chloro-2-(1-isopropyl-5,5-dimethyl-2,3,4,5-tetrahydro-1H-benzo[b]azepin-8-ylamino)-pyrimidin-4-ylamino]-3-fluoro-N-prop-2-ynyl-benzamide]
> 10 µM	> 10 µM	–	–	–	CCN1CCNC(=O)c2ccc(Nc3ncc(Cl)c(Nc4ccccc4OCCN4CCOCC4)n3)cc21 [Example 1455, 8-{5-Chloro-4-[2-(2-morpholin-4-yl-ethoxy)-phenylamino]-pyrimidin-2-ylaminol}-1-ethyl-1,2,3,4-tetrahydro-benzo[e][1,4]diazepin-5-one]
–	–	< 0.1 µM	1 to 10 µM	–	CN1CCN(C2CCN(C3CCc4ccc(Nc5ncc(Cl)c(N[C@@H]6CCCC[C@H]6NS(C)(=O)=O)n5)cc4CC3)CC2)CC1 (stereo partly drawn) [Example 886, N-[(1R,2R)-2-(5-Chloro-2-{7-[4-(4-methyl-piperazin-1-yl)-piperidin-1-yl]-6,7,8,9-tetrahydro-5H-benzocyclohepten-2-ylamino}-pyrimidin-4-ylamino)-cyclohexyl]-methanesulfonamide]
–	–	–	–	IC50 [1, 3]: < 0.1 µM; IC50 [2, 4]: > 10 µM	COc1cc2c(cc1Nc1ncc(Cl)c(Nc3ccccc3S(C)(=O)=O)n1)CCN(CC(N)=O)CC2 [Example 1143, 2-{7-[5-Chloro-4-(2-methanesulfonyl-phenylamino)-pyrimidin-2-ylamino]-8-methoxy-1,2,4,5-tetrahydro-benzo[d]azepin-3-yl}-acetamide]
–	–	< 0.1 µM	1 to 10 µM	–	CN1CCN(C2CCc3ccc(Nc4ncc(Cl)c(N[C@H]5[C@@H](C(N)=O)[C@@H]6C=C[C@H]5C6)n4)cc3CC2)CC1 (stereo partly drawn) [Example 892, (1S,2S,3R,4R)-3-{5-Chloro-2-[7-(4-methyl-piperazin-1-yl)-6,7,8,9-tetrahydro-5H-benzocyclohepten-2-ylamino]-pyrimidin-4-ylamino}-bicyclo[2.2.1]hept-5-ene-2-carboxylic acid amide]
0.1 to 1 µM	< 0.1 µM	–	–	–	CNC(=O)c1cc(F)cc(F)c1Nc1nc(Nc2ccc3c(c2)N(C(C)=O)CCCC3(C)C)ncc1Cl [Example 1608, 2-[2-(1-Acetyl-5,5-dimethyl-2,3,4,5-tetrahydro-1H-benzo[b]azepin-8-ylamino)-5-chloro-pyrimidin-4-ylamino]-3,5-difluoro-N-methyl-benzamide]
